Source: patent publication US8507235B2, “Isoprene production using the DXP and MVA pathway” (Danisco US Inc., priority 2009, dated 2013)
“And” between values parts separate entries of the source, which are not always exact repeats. Equal values may be shown once. Read-outs that look alike come from different tables or passages of the source.

Assays:
E. coli strain MCM597 [1] = assay: Carbon sources useful for the production of isoprene (Biolog PM1 plate); assay type: cell-based; details: 0.2% yeast extract, compound as carbon source; normalized to α-D-glucose
E. coli strain MCM597 [2] = assay: Carbon sources affecting isoprene production during growth on glucose (Biolog PM1 and PM2A plates); assay type: cell-based; details: 0.5% glucose, 0.2% yeast extract; normalized to control only fed glucose; p<0.1
E. coli strain MCM597 [3] = assay: Nitrogen sources affecting isoprene production (Biolog PM3B plates); assay type: cell-based; details: 0.5% glucose as sole carbon source, no yeast extract; p<0.1
REM A2—17 strain [4] = assay: Specific productivity of isoprene of strain REM A2—17 in the presence and absence of fosmidomycin (headspace assay); assay type: cell-based, E. coli; details: 2 mM fosmidomycin; for activity at 2000 µM: Escherichia coli, 0.75 h, read-out: fraction of isoprene produced during exposure to fosmidomycin relative to absence of the inhibitor (MVA-flux)
REM A2—17 strain [5] = assay: Accumulation of DXP and MVA pathway metabolites in REM A2—17 with and without fosmidomycin (LC-MS/MS); assay type: cell-based, E. coli; details: 2 mM fosmidomycin, 45 min. incubation
[6] = tested on: E. coli BL21 strain harboring the GI1.6-dxr locus; assay: Isoprene production with fosmidomycin in the growth media, GI1.6-dxr strain; assay type: cell-based; details: 1 mM fosmidomycin in the growth media
[7] = tested on: dxr null E. coli BL21 strain; assay type: cell-based
[8] = Flammability limits of isoprene (computer simulation and experimental testing); assay type: physicochemical
Source text: Thus, computer modeling and experimental testing were used to determine the flammability limits of isoprene (such as isoprene in the presence of O2, N2, CO2, or any combination of two or more of the foregoing gases) in order to ensure process safety. The flammability envelope is characterized by the lower flammability limit (LFL), the upper flammability limit (UFL), the limiting oxygen concentration (LOC), and the limiting temperature. For a system to be flammable, a minimum amount of fuel (such as isoprene) must be in the presence of a minimum amount of oxidant, typically oxygen. The LFL is the minimum amount of isoprene that must be present to sustain burning, while the UFL is the maximum amount of isoprene that can be present. Above this limit, the mixture is fuel rich and the fraction of oxygen is too low to have a flammable mixture. The LOC indicates the minimum fraction of oxygen that must also be present to have a flammable mixture. The limiting temperature is based on the flash point of isoprene and is that lowest temperature at which combustion of isoprene can propagate. These limits are specific to the concentration of isoprene, type and concentration of oxidant, inerts present in the system, temperature, and pressure of the system. […]

Dxr from E. coli = target: T1, Dxr from E. coli (Escherichia coli, UniProt P45568); assay: Dxr inactivation by incubation with DMAPP and HDMAPP; assay type: biochemical; details: purified Dxr from E. coli
T1 construct: His tag (pET15b) (N); made in house; host or cells: E. coli BL21(λDE3)
T1 sequence (P45568 whole entry): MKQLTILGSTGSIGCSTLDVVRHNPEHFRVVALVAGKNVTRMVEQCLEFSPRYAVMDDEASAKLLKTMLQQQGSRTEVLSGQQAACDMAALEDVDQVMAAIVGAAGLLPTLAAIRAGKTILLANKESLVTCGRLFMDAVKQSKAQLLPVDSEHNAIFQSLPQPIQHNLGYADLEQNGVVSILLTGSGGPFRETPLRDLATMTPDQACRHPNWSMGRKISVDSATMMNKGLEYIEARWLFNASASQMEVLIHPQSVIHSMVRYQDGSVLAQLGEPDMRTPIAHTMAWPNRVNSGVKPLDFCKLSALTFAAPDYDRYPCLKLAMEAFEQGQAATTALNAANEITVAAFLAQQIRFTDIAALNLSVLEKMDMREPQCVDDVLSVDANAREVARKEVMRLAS
Protocol: The purified protein, 5 uM, was incubated at several concentration of DMAPP or HMBPP (Echelon Bioscience, Salt Lake City, Utah) in buffer consisting of 100 mM Tris, 100 mM NaCl pH 8, 5 mM MgCl2, 0.2 mM NADPH, 0.2 mM DXP, and 250 nM DXR. D at 37° C. for two hour in a total volume of 50 uL. Dxr activity was measured periodically according to standard assay, see, e.g., Koppisch et al, Biochemistry, 41:236-43 (2002) with a 20-fold dilution of the inactivation reaction mixture. […] Where appropriate additional control activity assays were conducted in the presence of a 20-fold diluted concentration of inactivators (DMAPP or HMBPP).

[9] = tested on: strains REM H8—12 and REM I7—11; assay type: cell-based, E. coli
[10] = about 1 atmosphere and about 60° F.; cited from earlier work
[11] = approx. 45 minutes, unlabeled culture without tryptophan (FIG. 98)

SMILES | specific productivity of isoprene (E. coli strain MCM597 [2]) | specific isoprene production (E. coli strain MCM597 [3]) | further results
O=C(CO)[C@@H](O)[C@H](O)[C@H](O)CO [D-fructose] | – | – | specific productivity of isoprene (E. coli strain MCM597 [1]): increasing
OC[C@H]1O[C@H](O[C@H]2O[C@H](CO)[C@@H](O)[C@H](O)[C@H]2O)[C@H](O)[C@@H](O)[C@@H]1O [D-trehalose] | – | – | specific productivity of isoprene (E. coli strain MCM597 [1]): increasing
CCC(=O)O [propionic acid] | increasing | – | –
CSCC[C@H](N)C(=O)O [L-methionine] | – | negatively affecting | –
N[C@@H](Cc1ccccc1)C(=O)O [L-phenylalanine] | increasing | – | –
N[C@@H](CCC(=O)O)C(=O)O [L-glutamic acid] | – | increasing | –
O=CN(O)CCCP(=O)(O)O [fosmidomycin] | – | – | decrease in isoprene production with fosmidomycin (DXP-flux) (REM A2—17 strain [4]; 1-13C glucose culture with 50 uM tryptophan (FIG. 98)): 51%; decrease in isoprene production with fosmidomycin (DXP-flux) (REM A2—17 strain [4]; 1-13C glucose culture without tryptophan): 42% and 43%; decrease in isoprene production with fosmidomycin (DXP pathway contribution) (REM A2—17 strain [4]; 3-13C glucose): 43% and ~42%; decrease in isoprene production with fosmidomycin (DXP pathway contribution) (REM A2—17 strain [4]; [11]): ~48%; fraction of isoprene produced during exposure to fosmidomycin relative to absence of the inhibitor (MVA pathway contribution) (REM A2—17 strain [4]; [11]): roughly 52%; fraction of isoprene produced during exposure to fosmidomycin relative to absence of the inhibitor (MVA pathway contribution) (REM A2—17 strain [4]; approx. 45 minutes, unlabeled glucose (FIG. 96)): roughly 59%; decrease in isoprene production with fosmidomycin (DXP pathway contribution) (REM A2—17 strain [4]; approx. 45 minutes, unlabeled glucose (FIG. 96, 97)): 41%; fraction of isoprene produced during exposure to fosmidomycin relative to absence of the inhibitor (MVA pathway contribution) (REM A2—17 strain [4]; approx. 1 hour, 3-13C glucose (FIG. 99)): roughly 58%; activity at 2000 µM (REM A2—17 strain [4]; approx. 45 minutes, 1-13C glucose culture with 50 uM tryptophan (FIG. 98)): 49%; activity at 2000 µM (REM A2—17 strain [4]; approx. 45 minutes, 1-13C glucose culture without tryptophan (FIG. 98)): 57%; DXP concentration (REM A2—17 strain [5]): significant increase; HDMAPP concentration (REM A2—17 strain [5]): decrease; concentration of MEP, CDP-ME and cMEPP (REM A2—17 strain [5]): drop; concentration of MVA (REM A2—17 strain [5]): did not change; decrease of the cumulative amount of IPP and DMAPP (REM A2—17 strain [5]): 55%; isoprene production [6]: undetectable level; isoprene production [7]: same level of isoprene production
C[C@@H](O)[C@H](N)C(=O)O [L-threonine] | – | increasing | –
C=CC(=C)C [isoprene, 2-methyl-1,3-butadiene] | – | – | limiting temperature [8]: about −54 °C; limiting oxygen concentration (LOC) ([8]; isoprene, O2, N2, and CO2 mixture at 40° C. and 1 atmosphere): 9.5 vol %
NC(=O)[C@@H](O)[C@@H](O)[C@H](O)[C@@H](O)C=O [glucuronamide] | increasing | – | –
C/C(=C\COP(=O)(O)OP(=O)(O)O)CO [HMBPP, 1-hydroxy-2-methyl-2-(E)-butenyl 4-diphosphate] | – | – | Dxr activity after incubation with the compound (Dxr from E. coli): inactivated
NC(=O)C[C@H](N)C(=O)O [L-asparagine] | – | increasing | –
N[C@@H](C(=O)O)[C@@H](O)[C@H](O)[C@H](O)CO [D-glucosaminic acid] | increasing | – | –
N[C@@H](Cc1c[nH]c2ccccc12)C(=O)O [L-tryptophan] | – | increasing | –
O=[N+]([O-])O [nitrate] | – | did not significantly change | –
N[C@@H](Cc1ccc(O)cc1)C(=O)O [L-tyrosine] | – | negatively affecting | –
NC(N)=O [urea] | – | did not significantly change | –
OC[C@@H](O)[C@@H](O)[C@H](O)[C@H](O)CO [D-mannitol] | – | – | specific productivity of isoprene (E. coli strain MCM597 [1]): increasing
Nc1ncnc2nc[nH]c12 [adenine] | – | negatively affecting | –
O=C[C@H](O)[C@@H](O)[C@H](O)[C@H](O)COP(=O)(O)O [D-glucose-6-phosphate] | – | – | specific productivity of isoprene (E. coli strain MCM597 [1]): increasing
N[C@@H](CO)C(=O)O [L-serine] | – | increasing | –

SMILES | specific productivity of isoprene (E. coli strain MCM597 [2]) | specific isoprene production (E. coli strain MCM597 [3]) | further results
O=C(O)[C@H](O)[C@@H](O)[C@H](O)[C@H](O)CO [D-gluconic acid] | increasing | – | –
NCCO [2-aminoethanol] | increasing | – | –
O=C[C@H](O)[C@@H](O)[C@@H](O)[C@H](O)C(=O)O [D-galacturonic acid] | increasing | – | specific productivity of isoprene (E. coli strain MCM597 [1]): increasing
Nc1nc2c(ncn2[C@@H]2O[C@H](CO)[C@@H](O)[C@H]2O)c(=O)[nH]1 [guanosine] | – | increasing | –
N[C@@H](CC(=O)O)C(=O)O [L-aspartic acid] | – | increasing | –
OC[C@H]1O[C@@H](n2cnc3c(O)ncnc32)[C@H](O)[C@@H]1O [inosine] | increasing | increasing | –
O=NO [nitrite] | – | did not significantly change | –
C[C@@](O)(CCO)CC(=O)O [mevalonic acid, (R)-mevalonic acid] | – | – | isoprene specific productivity from mevalonate (m/z of 67) [9]: increased with increasing mevalonic acid concentration; specific productivity of isoprene from [U-13C]-glucose (m/z of 73) [9]: the same
OC[C@H]1O[C@@H](O[C@H]2[C@H](O)[C@@H](O)[C@H](O)O[C@@H]2CO)[C@H](O)[C@@H](O)[C@@H]1O [D-cellobiose] | increasing | – | –
O=C(CO)[C@H](O)[C@H](O)[C@H](O)CO [D-psicose] | increasing | – | –
CCO [ethanol] | – | – | limiting oxygen concentration (LOC) [10]: about 8.7 vol %; lower flammability limit (LFL) [10]: about 3.3 vol %
OC[C@H]1O[C@@](CO)(O[C@H]2O[C@H](CO)[C@@H](O)[C@H](O)[C@H]2O)[C@@H](O)[C@@H]1O [sucrose] | increasing | – | –
O=C1O[C@H]([C@@H](O)CO)[C@@H](O)[C@@H]1O [L-galactonic acid-γ-lactone] | increasing | – | –
O=C(O)C[C@H](O)C(=O)O [L-malic acid] | increasing | – | –
N [ammonia] | – | did not significantly change | –
NCCc1ccccc1 [phenylethylamine] | increasing | – | –
OC[C@H]1O[C@H](O)[C@H](O)[C@@H](O)[C@@H]1O [α-D-glucose] | – | – | specific productivity of isoprene (E. coli strain MCM597 [1]): increasing
O=C(O)[C@@H](O)[C@H](O)[C@H](O)[C@@H](O)C(=O)O [mucic acid] | increasing | – | –
CC(=O)N[C@H]1C(O)O[C@H](CO)[C@@H](O)[C@@H]1O (stereo partly drawn) [N-acetyl-D-glucosamine] | – | – | specific productivity of isoprene (E. coli strain MCM597 [1]): increasing
CC(O)C(C)O (stereo not drawn) [2,3-butanediol] | increasing | – | –
O=C[C@@H](O)[C@@H](O)[C@H](O)[C@H](O)CO [D-mannose] | increasing | – | –
